Like-named read-outs stand apart in the source and are kept apart here.
Biological target: T1, IRAK4 (Homo sapiens, UniProt Q9NWZ3)
T1 construct: Degradation of IRAK4 in OCI-LY10 was quantitatively measured using Meso Scale Discovery technology; endogenous in cells; host or cells: OCI-LY10
T1 sequence (Q9NWZ3 1-460): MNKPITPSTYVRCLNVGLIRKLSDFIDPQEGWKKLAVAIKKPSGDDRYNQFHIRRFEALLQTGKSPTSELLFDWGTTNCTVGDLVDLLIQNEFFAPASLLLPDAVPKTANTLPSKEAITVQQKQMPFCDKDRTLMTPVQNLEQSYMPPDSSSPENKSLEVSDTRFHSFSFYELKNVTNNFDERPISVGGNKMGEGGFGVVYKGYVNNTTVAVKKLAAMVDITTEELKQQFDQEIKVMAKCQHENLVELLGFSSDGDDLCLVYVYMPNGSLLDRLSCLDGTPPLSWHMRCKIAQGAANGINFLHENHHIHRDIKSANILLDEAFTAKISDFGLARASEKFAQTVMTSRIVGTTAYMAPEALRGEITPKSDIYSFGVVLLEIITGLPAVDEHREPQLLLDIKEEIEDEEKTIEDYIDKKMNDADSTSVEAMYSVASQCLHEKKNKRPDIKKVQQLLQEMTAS
Test: IRAK4 MSD Degradation in OCI-LY10
Type: cell-based
Conditions: OCI-LY10 cells, MSD
How it was run: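 OCI-LY10 cells exposed to 8-point 1:3 compound series (top 1 to 10 μM) for 4 to 24 h at 37 °C, 5% CO2. Lysate IRAK4 quantified by MSD sandwich immunoassay. DC50 from three-parameter logistic fit, binned A (<0.01 μM) to D (>0.2 μM or not tested).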

[1] = 4 hrs incubation, read-out: IRAK4 degradation in OCI-LY10 at 4 hrs: DC50
[2] = 24 hrs incubation, read-out: IRAK4 degradation in OCI-LY10 at 24 hrs: DC50

SMILES	DC50 [1]	DC50 [2]
Cn1c(=O)n(C2CCC(=O)NC2=O)c2cccc(C3=CCN(C[C@H]4CC[C@H](n5cc6cc(NC(=O)c7cccc(C(F)(F)F)n7)ccc6n5)CC4)CC3F)c21 (stereo partly drawn) [I-457]	> 200 nM	> 200 nM
Cn1c(=O)n(C2CCC(=O)NC2=O)c2cccc(C3=CCN(C[C@H]4CC[C@H](n5cc6cc(NC(=O)c7cccc(C(F)(F)F)n7)c(C#N)cc6n5)CC4)CC3F)c21 (stereo partly drawn) [I-458]	> 200 nM	> 200 nM
Cn1c(=O)n(C2CCC(=O)NC2=O)c2cccc(C3=CCN(C[C@H]4CC[C@H](n5cc6cc(NC(=O)c7cccc(C(F)(F)F)n7)c(C(F)F)cc6n5)CC4)CC3F)c21 (stereo partly drawn) [I-459]	> 200 nM	> 200 nM
Cn1c(=O)n(C2CCC(=O)NC2=O)c2cccc(C3CCN(C[C@H]4CC[C@H](n5cc6cc(NC(=O)c7cccc(C(F)(F)F)n7)ccc6n5)CC4)CC3O)c21 (stereo partly drawn) [I-460]	> 200 nM	> 200 nM
Cn1c(=O)n(C2CCC(=O)NC2=O)c2cccc(C3CCN(C[C@]4(O)CC[C@@H](n5cc6cc(NC(=O)c7cccc(C(F)(F)F)n7)ccc6n5)CC4)CC3)c21 (stereo partly drawn) [I-461]	> 200 nM	> 200 nM
COc1cc2nn([C@H]3CC[C@H](CN4CC=C(c5ccc6c(c5)n(C)c(=O)n6C5CCC(=O)NC5=O)C(F)(F)C4)CC3)cc2cc1NC(=O)c1cccc(C(F)(F)F)n1 (stereo partly drawn) [I-462]	> 200 nM	> 200 nM
COc1cc2nn([C@H]3CC[C@H](CN4CCC(c5ccc6c(c5)n(C)c(=O)n6C5CCC(=O)NC5=O)C(F)(F)C4)CC3)cc2cc1NC(=O)c1cccc(C(F)(F)F)n1 (stereo partly drawn) [I-463]	> 200 nM	> 200 nM
Cn1c(=O)n(C2CCC(=O)NC2=O)c2ccc(C3=CCN(C[C@H]4CC[C@H](n5cc6cc(NC(=O)c7cccc(C(F)(F)F)n7)ccc6n5)CC4)CC3(F)F)cc21 (stereo partly drawn) [I-464]	> 200 nM	> 200 nM
Cn1c(=O)n(C2CCC(=O)NC2=O)c2ccc(C3CCN(C[C@H]4CC[C@H](n5cc6cc(NC(=O)c7cccc(C(F)(F)F)n7)ccc6n5)CC4)CC3(F)F)cc21 (stereo partly drawn) [I-465]	> 200 nM	> 200 nM
COc1cc2nn([C@H]3CC[C@H](CN4CC=C(c5cccc6c(N7CCC(=O)NC7=O)cncc56)C(F)(F)C4)CC3)cc2cc1NC(=O)c1cccc(C(F)(F)F)n1 [I-466]	> 200 nM	> 200 nM
COc1cc2nn([C@H]3CC[C@H](CN4CCC(c5cccc6c(N7CCC(=O)NC7=O)cncc56)C(F)(F)C4)CC3)cc2cc1NC(=O)c1cccc(C(F)(F)F)n1 (stereo partly drawn) [I-467]	> 200 nM	> 200 nM
O=C1CCN(c2cncc3c(C4=CCN(C[C@H]5CC[C@H](n6cc7cc(NC(=O)c8cccc(C(F)(F)F)n8)ccc7n6)CC5)CC4(F)F)cccc23)C(=O)N1 [I-468]	> 200 nM	> 200 nM
O=C1CCN(c2cncc3c(C4CCN(C[C@H]5CC[C@H](n6cc7cc(NC(=O)c8cccc(C(F)(F)F)n8)ccc7n6)CC5)CC4(F)F)cccc23)C(=O)N1 (stereo partly drawn) [I-469]	> 200 nM	> 200 nM
COc1cc2nn([C@H]3CC[C@H](CN4CC=C(c5ccc6c(N7CCC(=O)NC7=O)cncc6c5)C(F)(F)C4)CC3)cc2cc1NC(=O)c1cccc(C(F)(F)F)n1 [I-470]	> 200 nM	> 200 nM
COc1cc2nn([C@H]3CC[C@H](CN4CCC(c5ccc6c(N7CCC(=O)NC7=O)cncc6c5)C(F)(F)C4)CC3)cc2cc1NC(=O)c1cccc(C(F)(F)F)n1 (stereo partly drawn) [I-471]	> 200 nM	> 200 nM
O=C1CCN(c2cncc3cc(C4=CCN(C[C@H]5CC[C@H](n6cc7cc(NC(=O)c8cccc(C(F)(F)F)n8)ccc7n6)CC5)CC4(F)F)ccc23)C(=O)N1 [I-472]	> 200 nM	> 200 nM
O=C1CCN(c2cncc3cc(C4CCN(C[C@H]5CC[C@H](n6cc7cc(NC(=O)c8cccc(C(F)(F)F)n8)ccc7n6)CC5)CC4(F)F)ccc23)C(=O)N1 (stereo partly drawn) [I-473]	> 200 nM	> 200 nM
CN(C[C@H]1CC[C@H](n2cc3cc(NC(=O)c4cccc(C(F)(F)F)n4)ccc3n2)CC1)C1CCN(c2cccc3c2n(C)c(=O)n3C2CCC(=O)NC2=O)CC1(F)F (stereo partly drawn) [I-474]	> 200 nM	> 200 nM
COc1cc2nn([C@H]3CC[C@H](CN(C)C4CCN(c5cccc6c5n(C)c(=O)n6C5CCC(=O)NC5=O)CC4(F)F)CC3)cc2cc1NC(=O)c1cccc(C(F)(F)F)n1 (stereo partly drawn) [I-475]	> 200 nM	> 200 nM
CN(C[C@H]1CC[C@H](n2cc3cc(NC(=O)c4cccc(C(F)(F)F)n4)c(C(F)F)cc3n2)CC1)C1CCN(c2cccc3c2n(C)c(=O)n3C2CCC(=O)NC2=O)CC1(F)F (stereo partly drawn) [I-476]	> 200 nM	> 200 nM

SMILES	DC50 [1]	DC50 [2]
CN(C[C@H]1CC[C@H](n2cc3cc(NC(=O)c4cccc(C(F)(F)F)n4)c(C#N)cc3n2)CC1)C1CCN(c2cccc3c2n(C)c(=O)n3C2CCC(=O)NC2=O)CC1(F)F (stereo partly drawn) [I-477]	> 200 nM	> 200 nM
CN(C[C@H]1CC[C@H](n2cc3cc(NC(=O)c4cccc(C(F)(F)F)n4)c([S+](C)[O-])cc3n2)CC1)C1CCN(c2cccc3c2n(C)c(=O)n3C2CCC(=O)NC2=O)CC1(F)F (stereo partly drawn) [I-478]	> 200 nM	> 200 nM
CN(C[C@H]1CC[C@H](n2cc3cc(NC(=O)c4cccc(C(F)(F)F)n4)c(S(C)(=O)=O)cc3n2)CC1)C1CCN(c2cccc3c2n(C)c(=O)n3C2CCC(=O)NC2=O)CC1(F)F (stereo partly drawn) [I-479]	> 200 nM	> 200 nM
CN(C[C@H]1CC[C@H](n2cc3cc(NC(=O)c4cccc(C(F)(F)F)n4)c(S(C)(=N)=O)cc3n2)CC1)C1CCN(c2cccc3c2n(C)c(=O)n3C2CCC(=O)NC2=O)CC1(F)F (stereo partly drawn) [I-480]	> 200 nM	> 200 nM
CN(C[C@H]1CC[C@H](n2cc(NC(=O)c3cnn4cccnc34)c(C(F)F)n2)CC1)C1CCN(c2ccc3c(c2)n(C)c(=O)n3C2CCC(=O)NC2=O)CC1(F)F (stereo partly drawn) [I-481]	> 200 nM	> 200 nM
CN(C[C@H]1CC[C@H](n2cc(NC(=O)c3cnn4cccnc34)c(C(F)F)n2)CC1)C1CCN(c2cccc3c2n(C)c(=O)n3C2CCC(=O)NC2=O)CC1F (stereo partly drawn) [I-482]	> 200 nM	> 200 nM
CN(C[C@H]1CC[C@H](n2cc(NC(=O)c3cnn4cccnc34)c(C(F)F)n2)CC1)C1C(F)CN(c2cccc3c2n(C)c(=O)n3C2CCC(=O)NC2=O)CC1F (stereo partly drawn) [I-483]	> 200 nM	> 200 nM
CN(C)c1ccn2ncc(C(=O)Nc3cn([C@H]4CC[C@H](CN(C)C5CCN(c6cccc7c6n(C)c(=O)n7C6CCC(=O)NC6=O)CC5(F)F)CC4)nc3C(F)F)c2n1 (stereo partly drawn) [I-484]	> 200 nM	10 to 100 nM
CN(C[C@H]1CC[C@H](n2cc(NC(=O)c3cnn4cccnc34)c(C(F)F)n2)CC1)C1CCN(c2cccc3c2n(C)c(=O)n3C2CCC(=O)NC2=O)CC1O (stereo partly drawn) [I-486]	> 200 nM	> 200 nM
CN(C[C@]1(O)CC[C@@H](n2cc(NC(=O)c3cnn4cccnc34)c(C(F)F)n2)CC1)C1CCN(c2cccc3c2n(C)c(=O)n3C2CCC(=O)NC2=O)CC1 (stereo partly drawn) [I-487]	> 200 nM	> 200 nM
Cn1c(=O)n(C2CCC(=O)NC2=O)c2cccc(C3CCN(C[C@H]4CC[C@H](n5cc6cc(NC(=O)c7cccc(C(F)(F)F)n7)ncc6n5)CC4)CC3(F)F)c21 (stereo partly drawn) [I-488]	> 200 nM	> 200 nM
Cn1c(=O)n(C2CCC(=O)NC2=O)c2cccc(C3CCN(C[C@H]4CC[C@H](n5cc6cc(NC(=O)c7cccc(C(F)(F)F)n7)ccc6n5)CC4)CC3(F)F)c21 (stereo partly drawn) [I-489]	> 200 nM	> 200 nM
Cn1c(=O)n(C2CCC(=O)NC2=O)c2cccc(C3CCN(C[C@H]4CC[C@H](n5cc6cc(NC(=O)c7cccc(C(F)(F)F)n7)c(C#N)cc6n5)CC4)CC3(F)F)c21 (stereo partly drawn) [I-490]	> 200 nM	> 200 nM
CO[C@@H]1CN(c2cccc3c2n(C)c(=O)n3C2CCC(=O)NC2=O)C[C@@H]1N(C)C[C@H]1CC[C@H](n2cc3cc(NC(=O)c4cccc(C(F)(F)F)n4)ccc3n2)CC1 (stereo partly drawn) [I-491]	> 200 nM	> 200 nM
CO[C@H]1CN(c2cccc3c2n(C)c(=O)n3C2CCC(=O)NC2=O)C[C@@H]1N(C)C[C@H]1CC[C@H](n2cc3cc(NC(=O)c4cccc(C(F)(F)F)n4)ccc3n2)CC1 (stereo partly drawn) [I-492]	> 200 nM	> 200 nM
CO[C@H]1CN(c2cccc3c2n(C)c(=O)n3C2CCC(=O)NC2=O)C[C@H]1N(C)C[C@H]1CC[C@H](n2cc3cc(NC(=O)c4cccc(C(F)(F)F)n4)ccc3n2)CC1 (stereo partly drawn) [I-493]	> 200 nM	> 200 nM
CO[C@@H]1CN(c2cccc3c2n(C)c(=O)n3C2CCC(=O)NC2=O)C[C@H]1N(C)C[C@H]1CC[C@H](n2cc3cc(NC(=O)c4cccc(C(F)(F)F)n4)ccc3n2)CC1 (stereo partly drawn) [I-494]	> 200 nM	> 200 nM
CO[C@@H]1CN(c2cccc3c2n(C)c(=O)n3C2CCC(=O)NC2=O)CC[C@H]1N(C)C[C@H]1CC[C@H](n2cc3cc(NC(=O)c4cccc(C(F)(F)F)n4)ccc3n2)CC1 (stereo partly drawn) [I-495]	> 200 nM	> 200 nM
CO[C@H]1CN(c2cccc3c2n(C)c(=O)n3C2CCC(=O)NC2=O)CC[C@@H]1N(C)C[C@H]1CC[C@H](n2cc3cc(NC(=O)c4cccc(C(F)(F)F)n4)ccc3n2)CC1 (stereo partly drawn) [I-496]	> 200 nM	> 200 nM
